The text below walks through data of PMC9572541, “Design, Synthesis and Biological Evaluation of Novel and Potent Protein Arginine Methyltransferases 5 Inhibitors for Cancer Therapy” (Molecules, 2022).

In one data set the test system is MDA-MB-468 cells. The data set can be described thus: Anti-proliferation CellTiter-Glo assay, MDA-MB-468. In kind it is cell-based. The note with it: Homo sapiens. From the text: (§1) MV-4-11 and MDA-MB-468 cell lines were used to evaluate the anti-proliferative activities of the selected target compounds (CellTiter-Glo assay), and AML-12 hepatocytes were selected to evaluate the toxicity of the compounds.
(§2) MV-4-11 and MDA-MB-468 cell line were derived from Cell Resources Center of Shanghai Academy of life sciences (Shanghai, China). AML-12 cell line was brough from Nanjing Lixing Biotechnology Co. Ltd. (Nanjing, China). MDA-MB-468 cell line was maintained in Dulbecco’s Modified Eagle Medium (DMEM, KeyGEN Bio) that contained 10% FBS (Biochanel, China), MV-4-11 cell line was maintained in Iscove’s Modified Dulbecco Medium containing; 10% FBS (Biochannel, China), AML-12 cell line was maintained in DMEM/F-12 (1:1) (KeyGEN, China; 1% ITS Liquid Media Supplement (Sigma, America), dexamethasone 40 ng/mL (Sigma, USA) and 10% FBS (Biochannel, China). All cells were grown in a humidified incubator containing 5% carbon dioxide at 37 ℃. All compounds were dispersed in dimethyl sulfoxide (Sigma), the concentration of the reserve solution was 10 mmol/L and the solution was stored in a refrigerator at −20 ℃. SDMA (# 13222S), β- Tubulin (#2146S) and horseradish peroxidase (HRP)-linked secondary antibodies anti-rabbit or anti-mouse IgG were purchased from Cell Signaling Technology (CST), and the anti-PRMT5 (ab109451) antibody was purchased from ABCAM.
(§3) The antiproliferative activities of compounds in vitro were measured by CellTiter-Glo (CTG) assay (Promega, America). In linear/log-phase growth, cultured MV-4-11 cells were split to with seeding density of 2 × 10^5 cells/mL in 1–20 mL of media, depending on the yield required at the end of the growth period. At the conclusion of each treatment period, cells were harvested by centrifugation (4 min, 1000 rpm), and cell pellets were rinsed twice with PBS before being research further processing. Afterwards, cells were plated in 96-well plates with a density of 500 cells/well in […] media. After six hours incubation, compounds treatment was performed. Half of the culture medium was moved and re-plated with fresh media with fresh compound after 6 days. On the 12th day, Cell Titer-Glo Luminescent Cell Viability assays (Promega, USA) were used to determine the viable cell number, and luminescence was recorded using the Envision Multilabel Plate Readers (PerkinElmer). The concentration dependence curves were determined at each time point using GraphPad Prism 8.0 software.
(In general: Cellular ATP, detected with luciferase, serves as a proxy for viable cell number.)

In a further data set the target is T1, PRMT5 (Homo sapiens, UniProt O14744).
T1 construct: The final concentrations of PRMT5 enzyme: 2.5 nm/L
The data set can be described thus: PRMT5 enzymatic activity inhibition assay (radioactive methylation, 3H-SAM to H4R3 peptide). Type of data set: biochemical. The following applies: for inhibition at 0.1 µM: 100 nM compound, read-out: Inhibition Rate% @100 nM. As for the experimental part:
The PRMT5 enzymatic activity assay was conducted by Chempartner Life science. The final concentrations of PRMT5 enzyme: 2.5 nm/L; ^3H-SAM: 0.3 μM/L; histone peptide (H4R3S1ac): 0.3 μM/L. The protocol of radioactive methylation assay was as follows: (1) Prepare 1× assay buffer (modified Tris Buffer). (2) Transfer compounds to assay plate using Echo in 100% DMSO. DMSO’s final fraction is 1%. (3) Prepare enzyme and ^3H-SAM Mix solution in 1× assay buffer. (4) Prepare substrate (peptide sequence Ac-[…]-K(Biotin)) solution in 1× assay buffer. (5) Transfer 15 μL of enzyme and ^3H-SAM solution to assay plate. (6) Incubate at room temperature for 60 min. (7) Add 10 μL of substrate solution to each well to start the reaction, and for low control transfer 10 μL of 1× assay buffer. (8) Incubate at room temperature for 120 min. (9) Add cold SAM in 1× assay buffer to make the stop mix. (10) Stop reaction with addition of 5 µL per well of stop solution. (11) Transfer 25 µL of volume per well to Flash plate from assay plate. (12) Incubate for 1 h minimum at room temperature.
(13) Read plate on Micro beta. (14) Data process—get the data in Excel to obtain inhibition values using Equation (1).Inhibitory rate% = (Max-Signal)/ (Max-Min) × 100(1)
Fit the data in XL-Fit to obtain IC50 values using Equation (2): Y = Bottom + (Top-Bottom)/(1 + (IC50/X) […]) Y is% inhibition and X is compound concentration(2)

For a further data set, the system named is AML-12 hepatocytes. The data set can be described thus: Toxicity on normal AML-12 hepatocytes. Type of data set: cell-based. The following applies: Mus musculus, AML12; for inhibition at 10 µM: read-out: AML-12 Inhibition Rate% @10 μM; for inhibition at 20 µM: read-out: AML-12 Inhibition Rate% @20 μM.
Excerpt: as §1
as §2, with “ABCAM. […]” for “ABCAM.”

In the next data set the test system is MV-4-11 cells. The data set can be described thus: Anti-proliferation CellTiter-Glo assay, MV-4-11. The note with it: Homo sapiens, MV4-11, 12th day. In kind it is cell-based.
Excerpt: as §1, §2, §3

Another data set concerns MV-4-11 xenograft. The data set can be described thus: MV-4-11 xenograft mouse model. In kind it is in vivo, BALB/c nude mice. The following applies: 10 mg/kg, twice daily (BID), 28 days. As for the experimental part: Based on the excellent enzymatic and anti-proliferative activities of compound 20 in vitro, we then evaluated antitumor activities in vivo in an MV-4-11 xenograft mouse model.
Male BALB/c nude mice (6–8 weeks old) were purchased from Hangzhou Medical College. All animals were housed in a specific pathogen-free facility. MV-4-11 cells (5 × 10^6) suspended in 0.2 mL of PBS were inoculated subcutaneously on the right flank of each BALB/c nude mouse. Mice were divided randomly (5 mice for each group) into two treatment groups and a control group when the size of the tumors reached 150 mm^3. […] The tumor volume and body weight were measured every 2 days. The tumor volume was determined with Vernier calipers and calculated as follows: tumor volume = a × b^2/2, where a and b stand for the longest and shortest diameters measured by the vernier caliper, respectively. All animal experiments have been approved by Pharmaceutical Experiment Center of China Pharmaceutical University.
(A) The resulting tumors excised from the animals after treatment. […] (C) The nude mouse body weight was measured every 2 days. (D) The tumor volumes of the nude mice were measured and calculated once every 2 days.

For data set [1] the following is noted: no reference given; cited from earlier work.

Where only a bound is given, the exact number is not on record here.

T1 sequence (O14744 whole entry): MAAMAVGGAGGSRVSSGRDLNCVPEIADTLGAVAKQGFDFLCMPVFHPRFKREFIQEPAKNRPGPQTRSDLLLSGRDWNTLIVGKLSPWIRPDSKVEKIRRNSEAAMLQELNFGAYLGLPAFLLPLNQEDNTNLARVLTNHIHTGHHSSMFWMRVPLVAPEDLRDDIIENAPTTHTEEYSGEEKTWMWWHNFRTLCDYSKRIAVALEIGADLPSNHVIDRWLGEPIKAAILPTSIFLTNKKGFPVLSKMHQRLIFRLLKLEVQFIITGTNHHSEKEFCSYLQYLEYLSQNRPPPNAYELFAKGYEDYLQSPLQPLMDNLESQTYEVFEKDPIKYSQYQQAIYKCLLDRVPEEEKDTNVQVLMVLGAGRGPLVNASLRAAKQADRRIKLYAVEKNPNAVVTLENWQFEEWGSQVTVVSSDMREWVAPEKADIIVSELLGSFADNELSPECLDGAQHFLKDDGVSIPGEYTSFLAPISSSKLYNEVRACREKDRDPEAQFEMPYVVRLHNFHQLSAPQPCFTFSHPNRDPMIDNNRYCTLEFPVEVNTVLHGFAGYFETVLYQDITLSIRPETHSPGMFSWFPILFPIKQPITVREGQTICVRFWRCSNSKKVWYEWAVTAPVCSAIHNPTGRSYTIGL
T1 sequence (Q9BQA1 whole entry partner): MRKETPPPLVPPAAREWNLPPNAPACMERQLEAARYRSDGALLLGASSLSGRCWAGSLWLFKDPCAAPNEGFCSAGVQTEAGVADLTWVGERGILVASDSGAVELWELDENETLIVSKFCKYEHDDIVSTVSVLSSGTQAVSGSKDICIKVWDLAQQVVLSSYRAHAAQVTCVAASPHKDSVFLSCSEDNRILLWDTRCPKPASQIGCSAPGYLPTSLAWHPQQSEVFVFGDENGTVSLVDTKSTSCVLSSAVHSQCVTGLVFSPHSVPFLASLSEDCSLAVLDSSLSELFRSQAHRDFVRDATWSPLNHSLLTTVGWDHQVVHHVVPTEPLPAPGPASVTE

As to `O=C(NC[C@H](O)CN1CCc2ccccc2C1)c1ccc2[nH]c3ccccc3c2c1` [Compound 1, (S)-N-(3-(3,4-dihydroisoquinolin-2(1H)-yl)-2-hydroxypropyl)-9H-carbazole-3-carboxamide], in the data set with MDA-MB-468 cells, the GI50 was 552 ± 33 nM. Besides, on PRMT5, the half-maximal inhibitory concentration (IC50) was found to be 13 ± 8.9 nM and the inhibition at 0.1 µM is 73 ± 0.7%. For the same compound, in the data set with AML-12 hepatocytes, the inhibition at 10 µM came out at 16.7 ± 10.4% and the inhibition at 20 µM was 97.5 ± 0.1%. The GI50 in the data set on MV-4-11 cells was 271 ± 152 nM.
`O=C(NC[C@H](O)CN1CCc2ccccc2C1)c1ccc2[nH]c3c(c2c1)CCCC3` [Compound 7, (S)-N-(3-(3,4-dihydroisoquinolin-2(1H)-yl)-2-hydroxypropyl)-2,3,4,9-tetrahydro-1H-carbazole-6-carboxamide]: in the data set with MDA-MB-468 cells, the GI50 was above 250 nM. For the same compound, at PRMT5, the IC50 stood at 18.6 ± 0.9 nM and the inhibition at 0.1 µM worked out at 75 ± 0.7%. Moreover, in the data set with AML-12 hepatocytes, the inhibition at 10 µM was found to be 46.4 ± 3.7% and the inhibition at 20 µM worked out at 98.4 ± 0.7%. For the same compound, the GI50 in the data set with MV-4-11 cells worked out at 54.1 ± 20.5 nM.
For `O=C(NC[C@H](O)CN1CCc2ccccc2C1)c1ccc2[nH]c3c(c2c1)CCCCCC3` [Compound 10, (S)-N-(3-(3,4-dihydroisoquinolin-2(1H)-yl)-2-hydroxypropyl)-6,7,8,9,10,11-hexahydro-5H-cycloocta[b]indole-2-carboxamide], the GI50 came out at 126 ± 70.9 nM in the data set on MDA-MB-468 cells and 42.4 ± 2.6 nM in the data set with MV-4-11 cells. For the same compound, the inhibition at 0.1 µM on PRMT5 worked out at 71 ± 1.3%. Also, the inhibition at 10 µM with AML-12 hepatocytes amounted to 97.9 ± 1.2%. In addition, the inhibition at 20 µM with AML-12 hepatocytes amounted to 100.7 ± 0.1%.
For the compound `Cn1c2c(c3cc(C(=O)NC[C@H](O)CN4CCc5ccccc5C4)ccc31)CCCC2` [Compound 13, (S)-N-(3-(3,4-dihydroisoquinolin-2(1H)-yl)-2-hydroxypropyl)-9-methyl-2,3,4,9-tetrahydro-1H-carbazole-6-carboxamide], in the data set on MDA-MB-468 cells, the concentration for 50% growth inhibition (GI50) is 147 ± 2.5 nM. Besides, on PRMT5, the IC50 is 10 ± 4.4 nM and the inhibition at 0.1 µM was found to be 75 ± 0.7%. In addition, in the data set with AML-12 hepatocytes, the inhibition at 10 µM was 16.3 ± 3.4% and the inhibition at 20 µM was 21.2 ± 2%. In addition, in the data set with MV-4-11 cells, it took 163.1 ± 0.3 nM to inhibit growth by half (GI50).
As for `CCn1c2c(c3cc(C(=O)NC[C@H](O)CN4CCc5ccccc5C4)ccc31)CCCC2` [Compound 14, (S)-N-(3-(3,4-dihydroisoquinolin-2(1H)-yl)-2-hydroxypropyl)-9-ethyl-2,3,4,9-tetrahydro-1H-carbazole-6-carboxamide], in the data set on MDA-MB-468 cells, the GI50 was 286 ± 5.9 nM. On PRMT5, the IC50 was found to be 8.8 ± 0.4 nM and the inhibition at 0.1 µM came to 81 ± 3.2%. Also, in the data set with AML-12 hepatocytes, the inhibition at 10 µM was -67 ± 11.3% and the inhibition at 20 µM amounted to 17.7 ± 3.5%. This compound displayed a GI50 with MV-4-11 cells of 29.7 ± 12.8 nM.
Take `CCCn1c2c(c3cc(C(=O)NC[C@H](O)CN4CCc5ccccc5C4)ccc31)CCCC2` [Compound 15]: in the data set on MDA-MB-468 cells, the GI50 was 24.9 ± 20.2 nM. Besides, at PRMT5, the IC50 was found to be 4.2 ± 2.1 nM and the inhibition at 0.1 µM worked out at 79 ± 4%. In the data set on AML-12 hepatocytes, the inhibition at 10 µM was -21.5 ± 2% and the inhibition at 20 µM is 77.3 ± 1.6%. In addition, the GI50 in the data set with MV-4-11 cells came to 39.5 ± 1.9 nM.
Take `O=C(NC[C@H](O)CN1CCc2ccccc2C1)c1ccc2c(c1)c1c(n2CC2CCC2)CCCC1` [Compound 19, (S)-9-(cyclobutylmethyl)-N-(3-(3,4-dihydroisoquinolin-2(1H)-yl)-2-hydroxypropyl)-2,3,4,9-tetrahydro-1H-carbazole-6-carboxamide]: growth in the data set with MDA-MB-468 cells was halved (GI50) at 99.1 ± 8.3 nM. Further, on PRMT5, the IC50 is 7.5 ± 0.3 nM and the inhibition at 0.1 µM worked out at 80 ± 1%. For the same compound, in the data set on AML-12 hepatocytes, the inhibition at 10 µM stood at 32.9 ± 5.4% and the inhibition at 20 µM amounted to 100.2 ± 0.9%. In the data set on MV-4-11 cells, this compound came in with a GI50 of 16 ± 2.3 nM.
On to `CC(=O)N1CCC(Nc2cc(C(=O)NC[C@H](O)CN3CCc4ccccc4C3)ncn2)CC1` [GSK-3326595, reference compound], for which, in the data set on MV-4-11 xenograft, the TGI is on record as 39.3%. Besides, in the data set with MDA-MB-468 cells, the 50% growth inhibitory concentration (GI50) is 37.3 ± 3 nM. In the data set on AML-12 hepatocytes, the inhibition at 10 µM came to 22.9 ± 3% and the inhibition at 20 µM was 26.5 ± 2%. In addition, the “adverse events in clinical studies” value in data set [1] is listed as “grade 3 or 4 adverse events”. Besides, the GI50 in the data set on MV-4-11 cells was determined as 9.3 ± 2.8 nM.

What is called GI50 is the concentration that inhibits growth by half. In general, IC50 refers to the point on the concentration scale where inhibition reaches its midpoint. The inhibition is the change of the read-out against control, counted positive when it falls. For orientation: TGI means the reduction of tumour growth relative to the control group. A lower TGI goes with little slowing of growth.
